Assay results taken from US20230056205A1, “SUBSTITUTED 4,6-DIHYDROSPIRO[[1,2,3]TRIAZOLO[4,5-B]PYRIDINE-7,3'-INDOLINE]-2',5(3H)-DIONE ANALOGUES” (The Board of Regents of The University of Texas System, priority 2019, published 2023).
Like-named read-outs stand apart in the source and are kept apart here.

Experiments:
[1] = Cytotoxicity assay (CellTiter-Glo); assay type: cell-based; conditions: human, Huh7 cells stably expressing DENV-2 replicon
Protocol: Cytotoxicity Assay. Huh7 cells or Huh7 replicon cells were seeded in a 96-well plate. After incubation at 37° C. with 5% CO2 overnight, the cells were treated with 2-fold serial dilutions of compounds. Experiments were performed in duplicates. After 48 h of incubation, cell viability was measured by adding the CellTiter-Glo reagent (Promega) to each well. The cell viability in 0.45% DMSO-treatment groups was treated at 100%. The cell viability in compound-treated wells was normalized to that of DMSO-treated wells. CC50 values were calculated using four parameter logistic regression in GraphPad software Prism 8.0.

DENV-3 replicon = assay: Luciferase reporter replicon-based screening, DENV-3; assay type: cell-based, DENV-3 (strain D3MY05-34640)
Protocol: (§1) Luciferase Reporter Replicon-Based Screening. Huh7 cells containing a luciferase reporter replicon of DENV-1 (strain WestPac), DENV-2 (New Guinea C strain, NGC), DENV-3 (strain D3MY05-34640) and DENV-4 (strain D4MY01-22713) were used in this study. The replicon cells containing the Renilla luciferase and neomycin-resistance genes were generated using a similar strategy as described previously.^55 Briefly, Huh7 DENV-1 to -4 replicon cells were seeded at a density of 10k per well in a 96-well microplate. After incubation at 37° C. with 5% CO2 overnight, the cells were treated with 2-fold serial dilutions of compounds. Experiments were performed in duplicates. After 48 h of incubation, luciferase activities were measured using the EnduRen live-cell substrate (Promega) by following the manufacturer’s instructions. The dose-dependent curve was plotted and EC50 values were calculated using four parameter logistic regression in GraphPad software Prism 8.0.

DENV-1 replicon = assay: Luciferase reporter replicon-based screening, DENV-1; assay type: cell-based, DENV-1 (strain WestPac); conditions: Dengue virus, DENV1, Huh-7, 48 h, read-out: EC50 DENV-1
Protocol: as §1

DENV-4 replicon = assay: Luciferase reporter replicon-based screening, DENV-4; assay type: cell-based, DENV-4 (strain D4MY01-22713); conditions: Dengue virus, DENV4, Huh-7, 48 h, read-out: EC50 DENV-4
Protocol: as §1

DENV-2 replicon = assay: Luciferase reporter replicon-based screening, DENV-2; assay type: cell-based, DENV-2 (New Guinea C strain, NGC)
Protocol: as §1

[2] = Dengue virus, DENV3, Huh-7, 48 h, read-out: EC50 DENV-3, Huh7 cells stably expressing DENV-3 replicon, 48 h
[3] = Dengue virus, DENV2, Huh-7, 48 h, read-out: EC50 DENV-2, Huh7 cells stably expressing DENV-2 replicon, 48 h
[4] = read-out: EC50 DENV-3, Huh7 cells stably expressing DENV-3 replicon, 48 h
[5] = read-out: EC50 DENV-2, Huh7 cells stably expressing DENV-2 replicon, 48 h

Row | Compound | CC50 at 48 h [1] [nM] | EC50 (DENV-3 replicon; [2]) [nM] | EC50 (DENV-1 replicon) [nM] | EC50 (DENV-4 replicon) [nM] | EC50 (DENV-2 replicon; [3]) [nM] | EC50 (DENV-3 replicon; [4]) [nM] | EC50 (DENV-2 replicon; [5]) [nM]
1 | C[C@@H](c1ccc(Cl)cc1)n1nnc2c1NC(=O)C[C@]21C(=O)N(CCCN2CCOCC2)c2ccc(Cl)cc21 [Compound 65, (R)-5'-Chloro-3-((S)-1-(4-chlorophenyl)ethyl)-1'-(3-morpholinopropyl)-4,6-dihydrospiro[[1,2,3]triazolo[4,5-b]pyridine-7,3'-indoline]-2',5(3H)-dione] | > 10000 | 5 | > 5000 | > 5000 | 76 |  | 
2 | COCCCN1C(=O)[C@]2(CC(=O)Nc3c2nnn3[C@@H](C)c2ccc(Cl)cc2)c2cc(Cl)ccc21 [Compound 39, (R)-5'-Chloro-3-((S)-1-(4-chlorophenyl)ethyl)-1'-(3-methoxypropyl)-4,6-dihydrospiro[[1,2,3]triazolo[4,5-b]pyridine-7,3'-indoline]-2',5(3H)-dione] | > 10000 | 9 to 76 | > 5000 | > 5000 | 37 to 290 | 9 | 40
3 | CCCCCCN1C(=O)[C@]2(CC(=O)Nc3c2nnn3[C@@H](C)c2ccc(Cl)cc2)c2cc(Cl)ccc21 [Compound 11, (R)-5'-Chloro-3-((S)-1-(4-chlorophenyl)ethyl)-1'-hexyl-4,6-dihydrospiro[[1,2,3]triazolo[4,5-b]pyridine-7,3'-indoline]-2',5(3H)-dione] | > 10000 | 140 | 830 | > 5000 | 810 |  | 
4 | C[C@@H](c1ccc(Cl)cc1)n1nnc2c1NC(=O)C[C@]21C(=O)N(CCCCN(C)C)c2ccc(Cl)cc21 [Compound 66, (R)-5'-Chloro-3-((S)-1-(4-chlorophenyl)ethyl)-1'-(4-(dimethylamino)butyl)-4,6-dihydrospiro[[1,2,3]triazolo[4,5-b]pyridine-7,3'-indoline]-2',5(3H)-dione] | > 10000 | 38 | > 5000 | > 5000 | 190 |  | 
5 | C[C@@H](c1ccc(Cl)cc1)n1nnc2c1NC(=O)C[C@]21C(=O)N(CCCCCCCCN(C)C)c2ccc(Cl)cc21 [Compound 69, (R)-5'-Chloro-3-((S)-1-(4-chlorophenyl)ethyl)-1'-(8-(dimethylamino)octyl)-4,6-dihydrospiro[[1,2,3]triazolo[4,5-b]pyridine-7,3'-indoline]-2',5(3H)-dione] | > 10000 | 42 | > 5000 | > 5000 | 490 |  | 
6 | CC(C)N1C(=O)[C@]2(CC(=O)N(C(C)C)c3c2nnn3[C@@H](C)c2ccc(Cl)cc2)c2cc(Cl)ccc21 [Compound 22, (R)-5'-Chloro-3-((S)-1-(4-chlorophenyl)ethyl)-1',4-diisopropyl-4,6-dihydrospiro[[1,2,3]triazolo[4,5-b]pyridine-7,3'-indoline]-2ʹ,5(3H)-dione] | > 10000 | 1500 | 3800 | 3000 | > 10000 |  | 
7 | CC(C)CN1C(=O)[C@]2(CC(=O)Nc3c2nnn3[C@@H](C)c2ccc(Cl)cc2)c2cc(Cl)ccc21 [Compound 14, (R)-5'-Chloro-3-((S)-1-(4-chlorophenyl)ethyl)-1'-isobutyl-4,6-dihydrospiro[[1,2,3]triazolo[4,5-b]pyridine-7,3'-indoline]-2',5(3H)-dione] | > 10000 | 20 | 1300 | > 5000 | 150 |  | 
8 | C[C@@H](c1ccc(Cl)cc1)n1nnc2c1NC(=O)C[C@]21C(=O)N(Cc2ccc(Cl)c(F)c2)c2ccc(Cl)cc21 [Compound 28, (R)-5'-Chloro-1'-(4-chloro-3-fluorobenzyl)-3-((S)-1-(4-chlorophenyl)ethyl)-4,6-dihydrospiro[[1,2,3]triazolo[4,5-b]pyridine-7,3'-indoline]-2',5(3H)-dione] | > 10000 | 290 | 1500 | 5100 | 4000 |  | 
9 | C[C@@H](c1ccc(Cl)cc1)n1nnc2c1NC(=O)C[C@]21C(=O)N(CCO)c2ccc(Cl)cc21 [Compound 42, (R)-5'-Chloro-3-((S)-1-(4-chlorophenyl)ethyl)-1'-(2-hydroxyethyl)-4,6-dihydrospiro[[1,2,3]triazolo[4,5-b]pyridine-7,3'-indoline]-2',5(3H)-dione] | > 10000 | 9 to 76 | > 5000 | > 5000 | 37 to 290 | 10 | 37
10 | C=CCN1C(=O)[C@]2(CC(=O)Nc3c2nnn3[C@@H](C)c2ccc(Cl)cc2)c2cc(Cl)ccc21 [Compound 18, (R)-1'-Allyl-5'-chloro-3-((S)-1-(4-chlorophenyl)ethyl)-4,6-dihydrospiro[[1,2,3]triazolo[4,5-b]pyridine-7,3ʹ-indoline]-2',5(3H)-dione] | > 10000 | 5 | 2100 | > 5000 | 38 |  | 
11 | C[C@@H](c1ccc(Cl)cc1)n1nnc2c1NC(=O)C[C@]21C(=O)N(CCN2CCC2)c2ccc(Cl)cc21 [Compound 61, (R)-1'-(2-(Azetidin-1-yl)ethyl)-5'-chloro-3-((S)-1-(4-chlorophenyl)ethyl)-4,6-dihydrospiro[[1,2,3]triazolo[4,5-b]pyridine-7,3'-indoline]-2',5(3H)-dione] | > 10000 | 7 | > 5000 | > 5000 | 67 |  | 
12 | C[C@@H](c1ccc(Cl)cc1)n1nnc2c1NC(=O)C[C@]21C(=O)N(CCCN2CCCCC2)c2ccc(Cl)cc21 [Compound 64, (R)-5'-Chloro-3-((S)-1-(4-chlorophenyl)ethyl)-1'-(3-(piperidin-1-yl)propyl)-4,6-dihydrospiro[[1,2,3]triazolo[4,5-b]pyridine-7,3'-indoline]-2',5(3H)-dione] | > 10000 | 12 | > 5000 | > 5000 | 130 |  | 
13 | C[C@@H](c1ccc(Cl)cc1)n1nnc2c1NC(=O)C[C@]21C(=O)Nc2ccc(Cl)cc21 [Compound 1a, (R)-5'-Chloro-3-((S)-1-(4-chlorophenyl)ethyl)-4,6-dihydrospiro[[1,2,3]triazolo[4,5-b]pyridine-7,3'-indoline]-2',5(3H)-dione] | > 10000 | 10 | > 5000 | > 5000 | 39 |  | 
14 | C[C@@H](c1ccc(Cl)cc1)n1nnc2c1NC(=O)C[C@]21C(=O)N(Cc2cc(C(C)(C)C)cc(C(C)(C)C)c2)c2ccc(Cl)cc21 [Compound 31, (R)-5'-Chloro-3-((S)-1-(4-chlorophenyl)ethyl)-1'-(3,5-di-tert-butylbenzyl)-4,6-dihydrospiro[[1,2,3]triazolo[4,5-b]pyridine-7,3ʹ-indoline]-2',5(3H)-dione] | > 10000 | 5900 | 4600 | 4900 | > 10000 |  | 
15 | C[C@@H](c1ccc(Cl)cc1)n1nnc2c1NC(=O)C[C@]21C(=O)N(Cc2cccnc2)c2ccc(Cl)cc21 [Compound 34, (R)-5'-Chloro-3-((S)-1-(4-chlorophenyl)ethyl)-1'-(pyridin-3-ylmethyl)-4,6-dihydrospiro[[1,2,3]triazolo[4,5-b]pyridine-7,3'-indoline]-2',5(3H)-dione] | > 10000 | 21 | 3200 | > 5000 | 29 |  | 
16 | C[C@@H](c1ccc(Cl)cc1)n1nnc2c1NC(=O)C[C@]21C(=O)N(C)c2ccc(Cl)cc21 [Compound 7, (R)-5'-Chloro-3-((S)-1-(4-chlorophenyl)ethyl)-1'-methyl-4,6-dihydrospiro[[1,2,3]triazolo[4,5-b]pyridine-7,3'-indoline]-2',5(3H)-dione] | > 10000 | 4 | > 5000 | > 5000 | 19 |  | 
17 | COc1cc(CN2C(=O)[C@]3(CC(=O)Nc4c3nnn4[C@@H](C)c3ccc(Cl)cc3)c3cc(Cl)ccc32)cc(OC)c1 [Compound 30, (R)-5'-Chloro-3-((S)-1-(4-chlorophenyl)ethyl)-1'-(3,5-dimethoxybenzyl)-4,6-dihydrospiro[[1,2,3]triazolo[4,5-b]pyridine-7,3'-indoline]-2',5(3H)-dione] | > 10000 | 790 | 3400 | 7400 | 3100 |  | 
